The values below come from US20050287195A1, “Transdermal drug delivery systems” (priority 1998, published 2005).

The data set in a line: In vitro skin permeation with human skin, Franz-type diffusion cells. The class given is in vitro ADME. To be noted: solvent/skin penetration enhancer DEET and/or Crotamiton, concentration below saturation, receptor at 32° C. The method, then:
Dermatomed human skin sections were mounted onto the Franz cells and transdermal drug delivery systems mounted on tape backings (1.5 cm^2) were placed on the stratum corneal surface of the skin. Each Franz cell contained 7 ml of ethanol phosphate buffered saline as the receptor medium, maintained at 32° C. At predetermined time intervals 0.7 ml of the receptor solution was sampled and an equal amount replaced. The samples were analysed by High Pressure Liquid Chromatography.

Regarding `C[C@]12CC[C@@H]3c4ccc(O)cc4CC[C@H]3[C@@H]1CC[C@@H]2O` [Estradiol], the skin mass transport result is listed as “enhanced”.

For `C#C[C@]1(OC(C)=O)CC[C@H]2[C@@H]3CCC4=CC(=O)CC[C@@H]4[C@H]3CC[C@@]21C` [Norethisterone Acetate], the skin mass transport result was “enhanced”.
